Like-named read-outs stand apart in the source and are kept apart here. A value given as a limit tells only on which side of the number the result lay.

One assay deals with Human mTOR (FLAG-TOR) (Homo sapiens, UniProt P42345). As to the kind of experiment: mTOR kinase assay (DELFIA format, purified enzyme). It counts as biochemical. Conditions: read-out: IC50 mTOR.
Another assay deals with PI3K-α (Homo sapiens, UniProt P42336). In words: PI3K-alpha fluorescence polarization assay. Background: In fluorescence polarisation assays a small probe gives low polarisation when free and higher when bound to something large.
Sequence of PI3K-α (P42336 whole entry, species assumed): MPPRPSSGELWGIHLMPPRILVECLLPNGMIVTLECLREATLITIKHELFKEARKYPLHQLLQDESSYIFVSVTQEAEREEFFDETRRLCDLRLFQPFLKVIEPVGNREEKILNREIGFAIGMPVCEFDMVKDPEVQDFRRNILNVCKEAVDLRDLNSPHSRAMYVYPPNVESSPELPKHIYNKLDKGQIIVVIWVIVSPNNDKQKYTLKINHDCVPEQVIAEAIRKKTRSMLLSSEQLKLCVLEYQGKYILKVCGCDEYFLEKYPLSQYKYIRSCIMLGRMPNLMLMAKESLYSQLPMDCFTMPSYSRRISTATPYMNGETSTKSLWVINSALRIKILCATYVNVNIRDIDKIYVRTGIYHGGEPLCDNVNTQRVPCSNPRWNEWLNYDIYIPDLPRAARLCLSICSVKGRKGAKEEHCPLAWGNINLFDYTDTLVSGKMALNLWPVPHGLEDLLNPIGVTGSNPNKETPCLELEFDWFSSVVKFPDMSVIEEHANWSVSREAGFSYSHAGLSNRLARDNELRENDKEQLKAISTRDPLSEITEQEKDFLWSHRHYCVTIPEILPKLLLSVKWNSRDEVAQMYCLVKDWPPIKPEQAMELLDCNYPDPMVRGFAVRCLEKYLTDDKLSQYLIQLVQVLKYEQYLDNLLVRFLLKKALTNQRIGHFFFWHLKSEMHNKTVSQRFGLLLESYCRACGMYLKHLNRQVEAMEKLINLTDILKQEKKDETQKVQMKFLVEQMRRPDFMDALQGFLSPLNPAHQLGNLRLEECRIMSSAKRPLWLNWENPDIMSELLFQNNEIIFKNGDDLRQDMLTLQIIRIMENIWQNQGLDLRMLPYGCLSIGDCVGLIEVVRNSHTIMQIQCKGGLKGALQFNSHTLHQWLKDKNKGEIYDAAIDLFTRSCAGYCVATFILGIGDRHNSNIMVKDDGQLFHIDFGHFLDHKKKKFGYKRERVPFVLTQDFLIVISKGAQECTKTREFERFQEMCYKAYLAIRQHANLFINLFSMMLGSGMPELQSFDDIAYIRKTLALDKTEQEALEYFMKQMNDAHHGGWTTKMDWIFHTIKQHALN
Sequence of PI3K-α (P27986 whole entry partner, species assumed): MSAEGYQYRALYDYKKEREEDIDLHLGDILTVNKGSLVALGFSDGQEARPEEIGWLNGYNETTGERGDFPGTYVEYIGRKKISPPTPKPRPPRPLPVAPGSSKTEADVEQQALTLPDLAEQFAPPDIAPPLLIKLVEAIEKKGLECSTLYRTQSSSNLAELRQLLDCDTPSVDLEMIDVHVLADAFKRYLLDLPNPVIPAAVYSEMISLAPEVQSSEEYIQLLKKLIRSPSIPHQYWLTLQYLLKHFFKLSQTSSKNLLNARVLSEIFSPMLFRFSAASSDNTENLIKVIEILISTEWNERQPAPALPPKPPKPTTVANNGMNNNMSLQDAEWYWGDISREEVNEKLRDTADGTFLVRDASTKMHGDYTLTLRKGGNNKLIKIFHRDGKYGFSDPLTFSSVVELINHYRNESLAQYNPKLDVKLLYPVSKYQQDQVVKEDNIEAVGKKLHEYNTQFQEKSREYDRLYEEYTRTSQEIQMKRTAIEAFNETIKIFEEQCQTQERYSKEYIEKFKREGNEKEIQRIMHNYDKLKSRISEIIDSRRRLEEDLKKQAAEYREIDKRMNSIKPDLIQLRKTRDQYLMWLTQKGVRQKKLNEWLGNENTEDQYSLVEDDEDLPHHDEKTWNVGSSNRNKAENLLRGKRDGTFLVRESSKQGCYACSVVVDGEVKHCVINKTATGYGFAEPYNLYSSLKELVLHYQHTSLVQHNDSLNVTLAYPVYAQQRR
For assay [1], the system named is human prostate LNCap tumor cell line. In words: In vitro cell culture growth assay (MTS), LNCap. As to conditions: Homo sapiens, LNCaP, 72 h, read-out: IC50 LNCap.
The target of a further assay is PI3K-γ (Homo sapiens, UniProt P48736). As to the kind of experiment: PI3K-gamma fluorescence polarization assay.
Sequence of PI3K-γ (P48736 whole entry, species assumed): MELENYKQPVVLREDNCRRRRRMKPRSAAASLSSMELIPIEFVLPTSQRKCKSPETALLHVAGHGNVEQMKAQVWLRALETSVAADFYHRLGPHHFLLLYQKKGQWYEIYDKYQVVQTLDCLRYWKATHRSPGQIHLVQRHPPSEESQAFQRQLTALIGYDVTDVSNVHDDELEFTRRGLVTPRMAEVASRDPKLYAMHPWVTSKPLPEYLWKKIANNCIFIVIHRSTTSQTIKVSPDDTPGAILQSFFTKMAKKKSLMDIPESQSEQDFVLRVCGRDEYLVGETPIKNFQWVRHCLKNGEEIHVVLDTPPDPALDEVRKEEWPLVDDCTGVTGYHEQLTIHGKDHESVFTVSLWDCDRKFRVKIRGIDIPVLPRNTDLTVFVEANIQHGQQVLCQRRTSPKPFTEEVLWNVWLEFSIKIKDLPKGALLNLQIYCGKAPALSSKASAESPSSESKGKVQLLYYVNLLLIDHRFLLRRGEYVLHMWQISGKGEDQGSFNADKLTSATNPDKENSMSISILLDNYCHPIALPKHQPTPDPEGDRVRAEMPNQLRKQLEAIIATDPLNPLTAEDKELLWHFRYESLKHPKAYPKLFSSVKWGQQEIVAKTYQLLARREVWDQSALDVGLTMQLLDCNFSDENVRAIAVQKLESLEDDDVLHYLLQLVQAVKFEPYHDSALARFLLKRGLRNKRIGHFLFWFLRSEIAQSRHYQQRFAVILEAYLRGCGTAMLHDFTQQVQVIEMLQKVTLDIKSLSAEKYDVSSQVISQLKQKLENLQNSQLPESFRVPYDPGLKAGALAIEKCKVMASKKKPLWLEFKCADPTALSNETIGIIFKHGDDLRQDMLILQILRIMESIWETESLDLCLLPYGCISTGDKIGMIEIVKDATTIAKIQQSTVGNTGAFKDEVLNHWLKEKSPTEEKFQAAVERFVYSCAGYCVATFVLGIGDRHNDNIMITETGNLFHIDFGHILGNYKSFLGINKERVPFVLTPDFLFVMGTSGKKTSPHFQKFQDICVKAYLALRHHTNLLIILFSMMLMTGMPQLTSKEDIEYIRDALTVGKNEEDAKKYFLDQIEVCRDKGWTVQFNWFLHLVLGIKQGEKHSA

Sequence of Human mTOR (FLAG-TOR) (P42345 1360-2549 limits assumed): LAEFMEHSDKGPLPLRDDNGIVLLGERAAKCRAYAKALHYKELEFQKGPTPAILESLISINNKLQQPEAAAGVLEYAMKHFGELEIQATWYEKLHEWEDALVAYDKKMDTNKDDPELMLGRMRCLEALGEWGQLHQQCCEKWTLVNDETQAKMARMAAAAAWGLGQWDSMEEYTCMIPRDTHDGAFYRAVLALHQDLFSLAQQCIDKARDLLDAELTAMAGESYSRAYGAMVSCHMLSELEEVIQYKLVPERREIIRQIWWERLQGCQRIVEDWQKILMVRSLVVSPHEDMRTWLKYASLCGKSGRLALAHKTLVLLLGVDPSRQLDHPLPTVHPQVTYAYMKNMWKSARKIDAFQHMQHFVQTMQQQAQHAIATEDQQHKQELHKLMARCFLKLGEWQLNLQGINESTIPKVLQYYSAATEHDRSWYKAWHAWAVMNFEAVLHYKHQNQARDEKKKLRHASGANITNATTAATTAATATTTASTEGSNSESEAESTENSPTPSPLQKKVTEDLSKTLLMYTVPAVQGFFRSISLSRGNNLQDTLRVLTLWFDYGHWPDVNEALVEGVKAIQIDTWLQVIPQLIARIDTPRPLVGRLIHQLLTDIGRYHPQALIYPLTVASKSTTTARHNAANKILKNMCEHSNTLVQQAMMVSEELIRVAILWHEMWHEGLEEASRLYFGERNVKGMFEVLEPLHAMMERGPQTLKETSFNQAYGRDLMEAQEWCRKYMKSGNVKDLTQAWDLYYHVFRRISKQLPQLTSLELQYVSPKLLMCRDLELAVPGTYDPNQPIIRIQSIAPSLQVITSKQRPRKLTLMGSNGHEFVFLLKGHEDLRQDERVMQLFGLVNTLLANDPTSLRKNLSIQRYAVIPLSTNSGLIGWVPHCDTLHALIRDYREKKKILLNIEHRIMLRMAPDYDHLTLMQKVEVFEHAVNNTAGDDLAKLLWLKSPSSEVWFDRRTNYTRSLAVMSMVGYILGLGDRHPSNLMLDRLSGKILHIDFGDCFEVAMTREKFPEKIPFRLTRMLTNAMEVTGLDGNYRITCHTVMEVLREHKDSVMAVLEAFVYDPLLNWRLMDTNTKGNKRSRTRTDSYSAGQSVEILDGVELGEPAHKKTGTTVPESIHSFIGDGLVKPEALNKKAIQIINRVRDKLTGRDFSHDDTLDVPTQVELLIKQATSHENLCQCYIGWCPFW

In the case of `O=C(Nc1ccc(-c2nc(NCCN3CCOCC3)nc(N3CC4CCC(C3)O4)n2)cc1)Nc1cccnc1` [Example 155, 1-(4-{4-[(2-morpholin-4-ylethyl)amino]-6-(8-oxa-3-azabicyclo[3.2.1]oct-3-yl)-1,3,5-triazin-2-yl}phenyl)-3-pyridin-3-ylurea], the 50% inhibitory concentration (IC50) (as a rule, the concentration at which inhibition is half-maximal) came to 16 nM on Human mTOR (FLAG-TOR), 2300 nM on PI3K-α (read-out: IC50 PI3Kα), 400 nM in assay [1] and 4940 nM at PI3K-γ (read-out: IC50 PI3Kγ).

Consider `O=C(Nc1ccc(-c2nc(NN3CCN(C4CCCC4)CC3)nc(N3CC4CCC(C3)O4)n2)cc1)Nc1cccnc1` [Example 157, 1-(4-{4-[(4-cyclopentylpiperazin-1-yl)amino]-6-(8-oxa-3-azabicyclo[3.2.1]oct-3-yl)-1,3,5-triazin-2-yl}phenyl)-3-pyridin-3-ylurea], for which the IC50 was found to be 170 nM on Human mTOR (FLAG-TOR), 1450 nM on PI3K-α (read-out: IC50 PI3Kα), 2700 nM in assay [1] and 7090 nM at PI3K-γ (read-out: IC50 PI3Kγ).

Regarding `CC(C)Oc1nc(-c2ccc(NC(=O)Nc3ccncc3)cc2)nc(N2CC3CCC(C2)O3)n1` [Example 158, 1-{4-[4-isopropoxy-6-(8-oxa-3-azabicyclo[3.2.1]oct-3-yl)-1,3,5-triazin-2-yl]phenyl}-3-pyridin-4-ylurea], the concentration for half-maximal inhibition (IC50) on Human mTOR (FLAG-TOR) is 7 nM; at PI3K-α (read-out: IC50 PI3Kα), 300 nM; in assay [1] it was 49 nM; on PI3K-γ (read-out: IC50 PI3Kγ), 1290 nM.

For the compound `CC(C)Oc1nc(-c2ccc(NC(=O)Nc3ccc(N4CCN(C)CC4)cc3)cc2)nc(N2CC3CCC(C2)O3)n1` [Example 159, 1-{4-[4-isopropoxy-6-(8-oxa-3-azabicyclo[3.2.1]oct-3-yl)-1,3,5-triazin-2-yl]phenyl}-3-[4-(4-methylpiperazin-1-yl)phenyl]urea], the IC50 on Human mTOR (FLAG-TOR) is 2 nM; on PI3K-α (read-out: IC50 PI3Kα) it was 133 nM; in assay [1], 1.2 nM; at PI3K-γ (read-out: IC50 PI3Kγ) it was 3920 nM.

On to `O=C(Nc1ccncc1)Nc1ccc(-c2nc(Cl)nc(N3CC4CCC(C3)O4)n2)cc1` [Example 160, 1-{4-[4-chloro-6-(8-oxa-3-azabicyclo[3.2.1]oct-3-yl)-1,3,5-triazin-2-yl]phenyl}-3-pyridin-4-ylurea], for which the IC50 at Human mTOR (FLAG-TOR) is 7 nM; at PI3K-α (read-out: IC50 PI3Kα), 358 nM; in assay [1], 220 nM; at PI3K-γ (read-out: IC50 PI3Kγ) it was 9070 nM.

With `O=C(Nc1ccc(-c2nc(NCC3CCNCC3)nc(N3CC4CCC(C3)O4)n2)cc1)Nc1cccnc1` [Example 169, 1-(4-{4-(8-oxa-3-azabicyclo[3.2.1]oct-3-yl)-6-[(piperidin-4-ylmethyl)amino]-1,3,5-triazin-2-yl}phenyl)-3-pyridin-3-ylurea], the IC50 stood at 8.3 nM at Human mTOR (FLAG-TOR), 408 nM on PI3K-α (read-out: IC50 PI3Kα), 5000 nM in assay [1] and 7960 nM on PI3K-γ (read-out: IC50 PI3Kγ).

Turning to `O=C(Nc1ccc(-c2nc(NCCC3CCNCC3)nc(N3CC4CCC(C3)O4)n2)cc1)Nc1cccnc1` [Example 170, 1-(4-{4-(8-oxa-3-azabicyclo[3.2.1]oct-3-yl)-6-[(2-piperidin-4-ylethyl)amino]-1,3,5-triazin-2-yl}phenyl)-3-pyridin-3-ylurea], the IC50 on Human mTOR (FLAG-TOR) stood at 4 nM; on PI3K-α (read-out: IC50 PI3Kα), 384 nM; in assay [1] it was 4500 nM; on PI3K-γ (read-out: IC50 PI3Kγ), 9500 nM.

On to `CN1CCN(c2nc(-c3ccc(NC(=O)Nc4cccnc4)cc3)nc(N3CC4CCC(C3)O4)n2)C1` [Example 171, 1-{4-[4-(3-methylimidazolidin-1-yl)-6-(8-oxa-3-azabicyclo[3.2.1]oct-3-yl)-1,3,5-triazin-2-yl]phenyl}-3-pyridin-3-ylurea], for which the IC50 at Human mTOR (FLAG-TOR) was 1.2 nM; at PI3K-α (read-out: IC50 PI3Kα) it was 300 nM; in assay [1] it was 5200 nM; on PI3K-γ (read-out: IC50 PI3Kγ) it was 9500 nM.

`COCC(COC)Oc1nc(-c2ccc(NC(=O)Nc3ccncc3)cc2)nc(N2CC3CCC(C2)O3)n1` [Example 174, 1-(4-{4-[2-methoxy-1-(methoxymethyl)ethoxy]-6-(8-oxa-3-azabicyclo[3.2.1]oct-3-yl)-1,3,5-triazin-2-yl}phenyl)-3-pyridin-4-ylurea]: the half-maximal inhibitory concentration (IC50) on Human mTOR (FLAG-TOR) was found to be 2.1 nM; at PI3K-α (read-out: IC50 PI3Kα), 861 nM; in assay [1], 4.25 nM; at PI3K-γ (read-out: IC50 PI3Kγ) it was 727 nM.

On to `COCC(COC)Oc1nc(-c2ccc(NC(=O)Nc3ccc(N4CCN(C)CC4)cc3)cc2)nc(N2CC3CCC(C2)O3)n1` [Example 175, 1-(4-{4-[2-methoxy-1-(methoxymethyl)ethoxy]-6-(8-oxa-3-azabicyclo[3.2.1]oct-3-yl)-1,3,5-triazin-2-yl}phenyl)-3-[4-(4-methylpiperazin-1-yl)phenyl]urea], for which the IC50 at Human mTOR (FLAG-TOR) was 4.8 nM; at PI3K-α (read-out: IC50 PI3Kα), 549 nM; in assay [1] it was 9.5 nM; at PI3K-γ (read-out: IC50 PI3Kγ), 453 nM.

Turning to `COCC(COC)Oc1nc(-c2ccc(NC(=O)OCCO)cc2)nc(N2CC3CCC(C2)O3)n1` [Example 176, 2-hydroxyethyl (4-{4-[2-methoxy-1-(methoxymethyl)ethoxy]-6-(8-oxa-3-azabicyclo[3.2.1]oct-3-yl)-1,3,5-triazin-2-yl}phenyl)carbamate], the IC50 came out at 22 nM at Human mTOR (FLAG-TOR), 1120 nM on PI3K-α (read-out: IC50 PI3Kα), 1000 nM in assay [1] and 3730 nM at PI3K-γ (read-out: IC50 PI3Kγ).

On to `CNC(=O)Nc1ccc(-c2nc(OC(COC)COC)nc(N3CC4CCC(C3)O4)n2)cc1` [Example 177, 1-(4-{4-[2-methoxy-1-(methoxymethyl)ethoxy]-6-(8-oxa-3-azabicyclo[3.2.1]oct-3-yl)-1,3,5-triazin-2-yl}phenyl)-3-methylurea], for which the IC50 at Human mTOR (FLAG-TOR) is 1.6 nM; on PI3K-α (read-out: IC50 PI3Kα), 5840 nM; in assay [1], 600 nM; at PI3K-γ (read-out: IC50 PI3Kγ), 4120 nM.

With `COCC(COC)Oc1nc(-c2ccc(NC(=O)NC3CC3)cc2)nc(N2CC3CCC(C2)O3)n1` [Example 178, 1-cyclopropyl-3-(4-{4-[2-methoxy-1-(methoxymethyl)ethoxy]-6-(8-oxa-3-azabicyclo[3.2.1]oct-3-yl)-1,3,5-triazin-2-yl}phenyl)urea], the IC50 at Human mTOR (FLAG-TOR) was 14 nM; against PI3K-α it was > 10000 nM; in assay [1], 850 nM; at PI3K-γ, > 10000 nM.

On to `O=C(Nc1ccc(-c2nc(OCC3CCCNC3)nc(N3CC4CCC(C3)O4)n2)cc1)Nc1cccnc1` (stereo not shown) [Example 180, 1-{4-[4-(8-oxa-3-azabicyclo[3.2.1]oct-3-yl)-6-(piperidin-3-ylmethoxy)-1,3,5-triazin-2-yl]phenyl}-3-pyridin-3-ylurea], for which the concentration for half-maximal inhibition (IC50) on Human mTOR (FLAG-TOR) turned out to be 1.6 nM; at PI3K-α (read-out: IC50 PI3Kα), 531 nM; in assay [1] it was 5800 nM; at PI3K-γ (read-out: IC50 PI3Kγ) it was 8000 nM.

For the compound `NCCCCOc1nc(-c2ccc(NC(=O)Nc3cccnc3)cc2)nc(N2CC3CCC(C2)O3)n1` [Example 181, 1-{4-[4-(4-aminobutoxy)-6-(8-oxa-3-azabicyclo[3.2.1]oct-3-yl)-1,3,5-triazin-2-yl]phenyl}-3-pyridin-3-ylurea], the IC50 at Human mTOR (FLAG-TOR) is 11 nM; at PI3K-α (read-out: IC50 PI3Kα), 426 nM; in assay [1], 3400 nM; on PI3K-γ (read-out: IC50 PI3Kγ), 6730 nM.

As to `O=C(Nc1ccc(-c2nc(OCCC3CCNCC3)nc(N3CC4CCC(C3)O4)n2)cc1)Nc1cccnc1` [Example 182, 1-{4-[4-(8-oxa-3-azabicyclo[3.2.1]oct-3-yl)-6-(2-piperidin-4-ylethoxy)-1,3,5-triazin-2-yl]phenyl}-3-pyridin-3-ylurea], the IC50 was 3 nM at Human mTOR (FLAG-TOR), 308 nM at PI3K-α (read-out: IC50 PI3Kα), 3500 nM in assay [1] and 5000 nM at PI3K-γ (read-out: IC50 PI3Kγ).

On to `O=C(Nc1ccc(-c2nc(OCC3CCNCC3)nc(N3CC4CCC(C3)O4)n2)cc1)Nc1cccnc1` [Example 183, 1-{4-[4-(8-oxa-3-azabicyclo[3.2.1]oct-3-yl)-6-(piperidin-4-ylmethoxy)-1,3,5-triazin-2-yl]phenyl}-3-pyridin-3-ylurea], for which the IC50 at Human mTOR (FLAG-TOR) is 14 nM; at PI3K-α (read-out: IC50 PI3Kα) it was 526 nM; in assay [1], 8500 nM; at PI3K-γ (read-out: IC50 PI3Kγ) it was 11000 nM.

For the compound `CNc1nc(-c2ccc(NC(=O)Nc3cccnc3)cc2)nc(N2CC3CCC(C2)O3)n1` [Example 190, 1-{4-[4-(methylamino)-6-(8-oxa-3-azabicyclo[3.2.1]oct-3-yl)-1,3,5-triazin-2-yl]phenyl}-3-pyridin-3-ylurea], the concentration for half-maximal inhibition (IC50) at Human mTOR (FLAG-TOR) amounted to 6.3 nM; on PI3K-α (read-out: IC50 PI3Kα), 780 nM; in assay [1], 950 nM; at PI3K-γ (read-out: IC50 PI3Kγ) it was 1320 nM.

For `CCNc1nc(-c2ccc(NC(=O)Nc3cccnc3)cc2)nc(N2CC3CCC(C2)O3)n1` [Example 191, 1-{4-[4-(ethylamino)-6-(8-oxa-3-azabicyclo[3.2.1]oct-3-yl)-1,3,5-triazin-2-yl]phenyl}-3-pyridin-3-ylurea], the half-inhibitory concentration (IC50) at Human mTOR (FLAG-TOR) worked out at 16 nM; on PI3K-α (read-out: IC50 PI3Kα) it was 435 nM; in assay [1], 220 nM; at PI3K-γ (read-out: IC50 PI3Kγ), 4630 nM.

Consider `CN(C)c1nc(-c2ccc(NC(=O)Nc3cccnc3)cc2)nc(N2CC3CCC(C2)O3)n1` [Example 192, 1-{4-[4-(dimethylamino)-6-(8-oxa-3-azabicyclo[3.2.1]oct-3-yl)-1,3,5-triazin-2-yl]phenyl}-3-pyridin-3-ylurea], for which the IC50 at Human mTOR (FLAG-TOR) came out at 43 nM; at PI3K-α (read-out: IC50 PI3Kα) it was 1120 nM; in assay [1], 620 nM; at PI3K-γ (read-out: IC50 PI3Kγ), 453 nM.

For `CC(C)Nc1nc(-c2ccc(NC(=O)Nc3cccnc3)cc2)nc(N2CC3CCC(C2)O3)n1` [Example 193, 1-{4-[4-(isopropylamino)-6-(8-oxa-3-azabicyclo[3.2.1]oct-3-yl)-1,3,5-triazin-2-yl]phenyl}-3-pyridin-3-ylurea], the IC50 at Human mTOR (FLAG-TOR) is 0.8 nM; on PI3K-α (read-out: IC50 PI3Kα), 401 nM; in assay [1], 105 nM; at PI3K-γ (read-out: IC50 PI3Kγ), 3130 nM.

Turning to `CNC(=O)Nc1ccc(-c2nc(NC(C)C)nc(N3CC4CCC(C3)O4)n2)cc1` [Example 212, 1-methyl-3-(4-{4-[(1-methylethyl)amino]-6-(8-oxa-3-azabicyclo[3.2.1]oct-3-yl)-1,3,5-triazin-2-yl}phenyl)urea], the 50% inhibitory concentration (IC50) at Human mTOR (FLAG-TOR) amounted to 6.4 nM; on PI3K-α (read-out: IC50 PI3Kα), 902 nM; in assay [1] it was 420 nM; at PI3K-γ (read-out: IC50 PI3Kγ), 8770 nM.

The record behind these values is US20090304692A1, “TRIAZINE COMPOUNDS AS PI3 KINASE AND MTOR INHIBITORS” (Wyeth, priority 2008, published 2009).
